The target in assay [1] is T1, BTK enzyme (recombinant full-length BTK, hBTK) (Homo sapiens, UniProt Q06187).
T1 construct: recombinant protein from baculovirus-transfected Sf9 cells: full-length BTK, 6HIS-tag cleaved; 6HIS (cleaved yes); made in house; host or cells: baculovirus-transfected Sf9 cells
In words: BTK enzyme activity assay, LANCE TR-FRET. The class given is biochemical. The conditions noted are these: 50 pM hBTK, 2 μM biotin-A5-peptide, 25 μM ATP; 60 min compound & enzyme incubation; read-out: IC50 BTK activity value. For orientation: In TR-FRET formats the signal depends on donor and acceptor labels being close together.

Assay [2] concerns HeLa cells. Description: [3H]Adenosine uptake functional cellular assay. The conditions noted are these: Homo sapiens, HeLa, accumulation of [3H]adenosine into HeLa cells; compound range 10 μM to […]; read-out: Adenosine uptake inhibition IC50. The class given is cell-based. The protocol:
Compounds are also screened in an adenosine uptake functional cellular assay using the protocol described below. The adenosine uptake inhibition assay may be used to identify compounds with the potential for a negative cardiovascular side effect.
Adenosine uptake activity was determined by monitoring the accumulation of tritiated adenosine into HeLa cells (ATCC catalog # CCL-2) using a PMT-based radiometric detection instrument. […] These cells were incubated overnight at 37° C. in a humidified atmosphere with 5% (v/v) CO2. After this time the growth medium was removed and replaced with 40 μL assay medium comprising: Hanks balanced salts solution (HBSS; Thermo Fisher Catalog # SH30268.01)+5% (v/v) FBS. […] 40 μL of compound in the assay medium was dispensed into individual wells of the Cytostar-T plates and the plates were incubated for 30 minutes under ambient laboratory conditions. Following this incubation, 20 μL of 500 nM [^3H]adenosine (American Radiolabeled Chemicals Inc. Catalog # ART0287) was added in the assay medium and incubated for a further 60 minutes under ambient laboratory conditions. The amount of radiolabel accumulation was then determined using a Perkin Elmer Topcount NXT microplate reader. In brief, HeLa cells adhere to the bottom of the Cytostar-T plate, uptake of [^3H]adenosine into these cells brings the radiolabel into sufficient proximity to excite the scintillant in the base of the plates. These events are captured by single PMT, time-resolved coincidence counting. IC50 values were determined by 4 parameter robust fit of counts per second values vs. (Log10) compound concentrations.

T1 sequence (Q06187 whole entry): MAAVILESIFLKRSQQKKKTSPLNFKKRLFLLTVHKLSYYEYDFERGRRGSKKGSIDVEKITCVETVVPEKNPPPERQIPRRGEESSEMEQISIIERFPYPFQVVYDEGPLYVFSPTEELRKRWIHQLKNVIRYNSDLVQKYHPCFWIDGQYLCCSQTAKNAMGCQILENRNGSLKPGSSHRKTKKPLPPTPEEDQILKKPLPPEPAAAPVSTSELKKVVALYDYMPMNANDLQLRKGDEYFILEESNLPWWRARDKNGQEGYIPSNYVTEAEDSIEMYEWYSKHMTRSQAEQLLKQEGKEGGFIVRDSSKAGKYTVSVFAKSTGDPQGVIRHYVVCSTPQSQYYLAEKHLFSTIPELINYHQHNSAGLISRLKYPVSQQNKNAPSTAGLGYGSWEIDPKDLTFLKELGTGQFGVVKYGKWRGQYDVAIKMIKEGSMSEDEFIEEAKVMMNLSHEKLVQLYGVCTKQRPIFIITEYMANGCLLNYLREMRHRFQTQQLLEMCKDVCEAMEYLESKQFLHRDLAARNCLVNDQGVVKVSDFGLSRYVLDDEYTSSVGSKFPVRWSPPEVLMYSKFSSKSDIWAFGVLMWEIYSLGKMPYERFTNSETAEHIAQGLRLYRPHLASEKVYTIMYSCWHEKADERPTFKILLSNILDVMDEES

Consider `Nc1nccn2c([C@H]3CC[C@@H]4CCCC(=O)N4C3)nc(-c3ccc(C(=O)Nc4cc(C(F)(F)F)ccn4)cc3F)c12` [Example 44, 4-{8-amino-3-[(3S,9aS)-6-oxooctahydro-2H-quinolizin-3-yl]imidazo[1,5-a]pyrazin-1-yl}-3-fluoro-N-[4-(trifluoromethyl)pyridin-2-yl]benzamide], for which the IC50 (usually the concentration needed to halve the response being measured) in assay [1] came out at 0.095 nM; in assay [2], 88.8 nM.

`Nc1nccn2c([C@@H]3CC[C@H]4CCCC(=O)N4C3)nc(-c3ccc(C(=O)Nc4cc(C(F)(F)F)ccn4)cc3F)c12` [Example 45, 4-{8-amino-3-[(3R,9aR)-6-oxooctahydro-2H-quinolizin-3-yl]imidazo[1,5-a]pyrazin-1-yl}-3-fluoro-N-[4-(trifluoromethyl)pyridin-2-yl]benzamide]: the IC50 in assay [1] was determined as 1.7 nM; in assay [2] it was 227 nM.

Turning to `C[C@@H]1OC(=O)N2C[C@H](c3nc(-c4ccc(C(=O)Nc5cc(C6CC6)ccn5)cc4)c4c(N)nccn34)CC[C@@H]12` [Example 46, 4-{8-amino-3-[(1S,6R,8aS)-1-methyl-3-oxohexahydro[1,3]oxazolo[3,4-a]pyridin-6-yl]imidazo[1,5-a]pyrazin-1-yl}-N-(4-cyclopropylpyridin-2-yl)benzamide], the results for the IC50 in assay [1] and in assay [2] were 0.53 nM and 71.3 nM, respectively.

With `C[C@H]1OC(=O)N2C[C@H](c3nc(-c4ccc(C(=O)Nc5cc(C6CC6)ccn5)cc4)c4c(N)nccn34)CC[C@@H]12` [Example 47, 4-{8-amino-3-[(1R,6R,8aS)-1-methyl-3-oxohexahydro[1,3]oxazolo[3,4-a]pyridin-6-yl]imidazo[1,5-a]pyrazin-1-yl}-N-(4-cyclopropylpyridin-2-yl)benzamide], the figures for the half-inhibitory concentration (IC50) in assay [1] and in assay [2] were 0.17 nM and 31.8 nM, respectively.

In the case of `C[C@@H]1OC(=O)N2C[C@H](c3nc(-c4ccc(C(=O)Nc5cc(C(F)(F)F)ccn5)cc4)c4c(N)nccn34)CC[C@@H]12` [Example 48, 4-{8-amino-3-[(1S,6R,8aS)-1-methyl-3-oxohexahydro[1,3]oxazolo[3,4-a]pyridin-6-yl]imidazo[1,5-a]pyrazin-1-yl}-N-[4-(trifluoromethyl)pyridin-2-yl]benzamide], the IC50 in assay [1] was determined as 0.14 nM; in assay [2], 92.6 nM.

With `C[C@H]1OC(=O)N2C[C@H](c3nc(-c4ccc(C(=O)Nc5cc(C(F)(F)F)ccn5)cc4)c4c(N)nccn34)CC[C@@H]12` [Example 49, 4-{8-amino-3-[(1R,6R,8aS)-1-methyl-3-oxohexahydro[1,3]oxazolo[3,4-a]pyridin-6-yl]imidazo[1,5-a]pyrazin-1-yl}-N-[4-(trifluoromethyl)pyridin-2-yl]benzamide], the IC50 was 0.11 nM in assay [1] and 51.8 nM in assay [2].

Consider `CN1CC(=O)N2C[C@H](c3nc(-c4ccc(C(=O)Nc5cc(C(F)(F)F)ccn5)cc4)c4c(N)nccn34)CC[C@H]2C1` [Example 50, 4-{8-amino-3-[(7R,9aS)-2-methyl-4-oxooctahydro-2H-pyrido[1,2-a]pyrazin-7-yl]imidazo[1,5-a]pyrazin-1-yl}-N-[4-(trifluoromethyl)pyridin-2-yl]benzamide], for which the IC50 in assay [1] came out at 0.26 nM; in assay [2] it was 45.1 nM.

Consider `CN1CC(=O)N2C[C@@H](c3nc(-c4ccc(C(=O)Nc5cc(C(F)(F)F)ccn5)cc4)c4c(N)nccn34)CC[C@@H]2C1` [Example 51, 4-{8-amino-3-[(7S,9aR)-2-methyl-4-oxooctahydro-2H-pyrido[1,2-a]pyrazin-7-yl]imidazo[1,5-a]pyrazin-1-yl}-N-[4-(trifluoromethyl)pyridin-2-yl]benzamide], for which the IC50 in assay [1] stood at 1.6 nM; in assay [2], 188 nM.

On to `CC1(C)OC(=O)N2C[C@H](c3nc(-c4ccc(C(=O)Nc5cc(C(F)(F)F)ccn5)cc4)c4c(N)nccn34)CC[C@H]21` [Example 52, 4-{8-amino-3-[(6R,8aS)-1,1-dimethyl-3-oxohexahydro[1,3]oxazolo[3,4-a]pyridin-6-yl]imidazo[1,5-a]pyrazin-1-yl}-N-[4-(trifluoromethyl)pyridin-2-yl]benzamide], for which the IC50 in assay [1] was 0.13 nM; in assay [2], 50.1 nM.

On to `COc1cc(C(=O)Nc2cc(C3CC3)ccn2)ccc1-c1nc([C@@H]2CC[C@H]3[C@@H](C)OC(=O)N3C2)n2ccnc(N)c12` [Example 53, 4-{8-amino-3-[(1R,6R,8aS)-1-methyl-3-oxohexahydro[1,3]oxazolo[3,4-a]pyridin-6-yl]imidazo[1,5-a]pyrazin-1-yl}-N-(4-cyclopropylpyridin-2-yl)-3-methoxybenzamide], for which the IC50 turned out to be 0.5 nM in assay [1] and 296 nM in assay [2].

For the compound `Nc1nccn2c([C@H]3CC[C@@H]4COCCN4C3)nc(-c3ccc(C(=O)Nc4cc(C(F)(F)F)ccn4)cc3)c12` [Example 56, 4-{8-amino-3-[(7S,9aR)-octahydropyrido[2,1-c][1,4]oxazin-7-yl]imidazo[1,5-a]pyrazin-1-yl}-N-[4-(trifluoromethyl)pyridin-2-yl]benzamide], the values for the IC50 in assay [1] and in assay [2] were 1.8 nM and 114 nM, respectively.

For `Nc1nccn2c([C@H]3CC[C@H]4CNCC(=O)N4C3)nc(-c3ccc(C(=O)Nc4cc(C(F)(F)F)ccn4)cc3)c12` [Example 57, 4-{8-amino-3-[(7S,9aS)-4-oxooctahydro-2H-pyrido[1,2-a]pyrazin-7-yl]imidazo[1,5-a]pyrazin-1-yl}-N-[4-(trifluoromethyl)pyridin-2-yl]benzamide], the IC50 in assay [1] is 0.28 nM; in assay [2], not below 10000 nM.

Regarding `Nc1nccn2c([C@H]3CC[C@@H]4C[C@H](O)C(=O)N4C3)nc(-c3ccc(C(=O)Nc4cc(C(F)(F)F)ccn4)cc3)c12` [Example 58, 4-{8-amino-3-[(2S,6S,8aR)-2-hydroxy-3-oxooctahydroindolizin-6-yl]imidazo[1,5-a]pyrazin-1-yl}-N-[4-(trifluoromethyl)pyridin-2-yl]benzamide], the results for the IC50 in assay [1] and in assay [2] were 4.1 nM and 811 nM, respectively.

Consider `Nc1nccn2c([C@@H]3CC[C@H]4C[C@@H](O)C(=O)N4C3)nc(-c3ccc(C(=O)Nc4cc(C(F)(F)F)ccn4)cc3)c12` [Example 59, 4-{8-amino-3-[(2R,6R,8aS)-2-hydroxy-3-oxooctahydroindolizin-6-yl]imidazo[1,5-a]pyrazin-1-yl}-N-[4-(trifluoromethyl)pyridin-2-yl]benzamide], for which the half-inhibitory concentration (IC50) worked out at 0.13 nM in assay [1] and 398 nM in assay [2].

In the case of `CNc1nccn2c([C@@H]3CC[C@H]4CCC(=O)N4C3)nc(-c3ccc(C(=O)Nc4cc(C(F)(F)F)ccn4)cc3)c12` [Example 60, 4-{8-(methylamino)-3-[(6R,8aS)-3-oxooctahydroindolizin-6-yl]imidazo[1,5-a]pyrazin-1-yl}-N-[4-(trifluoromethyl)pyridin-2-yl]benzamide], the IC50 in assay [1] was 12.7 nM; in assay [2], 44.1 nM.

On to `CCNC(=O)Nc1nccn2c([C@@H]3CC[C@H]4CCC(=O)N4C3)nc(-c3ccc(C(=O)Nc4cc(C(F)(F)F)ccn4)cc3)c12` [Example 61, 4-{8-[(ethylcarbamoyl)amino]-3-[(6R,8aS)-3-oxooctahydroindolizin-6-yl]imidazo[1,5-a]pyrazin-1-yl}-N-[4-(trifluoromethyl)pyridin-2-yl]benzamide], for which the IC50 turned out to be 17.7 nM in assay [1] and 19.2 nM in assay [2].

Consider `C[C@H]1CC(=O)N2C[C@H](c3nc(-c4ccc(C(=O)Nc5cc(C(F)(F)F)ccn5)cc4)c4c(N)nccn34)CC[C@H]12` [Example 64, 4-{8-amino-3-[(1S,6R,8aR)-1-methyl-3-oxooctahydroindolizin-6-yl]imidazo[1,5-a]pyrazin-1-yl}-N-[4-(trifluoromethyl)pyridin-2-yl]benzamide], for which the IC50 in assay [1] amounted to 0.77 nM; in assay [2], 114 nM.

Consider `Nc1nccn2c([C@@H]3CC[C@H]4CN(CCO)CC(=O)N4C3)nc(-c3ccc(C(=O)Nc4cc(C(F)(F)F)ccn4)cc3)c12` [Example 66, 4-{8-amino-3-[(7R,9aS)-2-(2-hydroxyethyl)-4-oxooctahydro-2H-pyrido[1,2-a]pyrazin-7-yl]imidazo[1,5-a]pyrazin-1-yl}-N-[4-(trifluoromethyl)pyridin-2-yl]benzamide], for which the IC50 came to 0.13 nM in assay [1] and 206 nM in assay [2].

In the case of `Nc1nccn2c([C@H]3CC[C@@H]4C[C@@H](O)C(=O)N4C3)nc(-c3ccc(C(=O)Nc4cc(C(F)(F)F)ccn4)cc3)c12` [Example 67, 4-{8-amino-3-[(2R,6S,8aR)-2-hydroxy-3-oxooctahydroindolizin-6-yl]imidazo[1,5-a]pyrazin-1-yl}-N-[4-(trifluoromethyl)pyridin-2-yl]benzamide], the IC50 in assay [1] came to 3.7 nM; in assay [2], 410 nM.

For the compound `Nc1nccn2c([C@@H]3CC[C@H]4C[C@H](O)C(=O)N4C3)nc(-c3ccc(C(=O)Nc4cc(C(F)(F)F)ccn4)cc3)c12` [Example 68, 4-{8-amino-3-[(2S,6R,8aS)-2-hydroxy-3-oxooctahydroindolizin-6-yl]imidazo[1,5-a]pyrazin-1-yl}-N-[4-(trifluoromethyl)pyridin-2-yl]benzamide], the IC50 was 0.081 nM in assay [1] and 430 nM in assay [2].

These data come from patent US20140206681A1, “BTK INHIBITORS” (priority 2013, published 2014).
